# Molecular target: T1, 3-phosphoinositide-dependent protein kinase 1 (Homo sapiens, UniProt O15530)
# T1 sequence (O15530 whole entry): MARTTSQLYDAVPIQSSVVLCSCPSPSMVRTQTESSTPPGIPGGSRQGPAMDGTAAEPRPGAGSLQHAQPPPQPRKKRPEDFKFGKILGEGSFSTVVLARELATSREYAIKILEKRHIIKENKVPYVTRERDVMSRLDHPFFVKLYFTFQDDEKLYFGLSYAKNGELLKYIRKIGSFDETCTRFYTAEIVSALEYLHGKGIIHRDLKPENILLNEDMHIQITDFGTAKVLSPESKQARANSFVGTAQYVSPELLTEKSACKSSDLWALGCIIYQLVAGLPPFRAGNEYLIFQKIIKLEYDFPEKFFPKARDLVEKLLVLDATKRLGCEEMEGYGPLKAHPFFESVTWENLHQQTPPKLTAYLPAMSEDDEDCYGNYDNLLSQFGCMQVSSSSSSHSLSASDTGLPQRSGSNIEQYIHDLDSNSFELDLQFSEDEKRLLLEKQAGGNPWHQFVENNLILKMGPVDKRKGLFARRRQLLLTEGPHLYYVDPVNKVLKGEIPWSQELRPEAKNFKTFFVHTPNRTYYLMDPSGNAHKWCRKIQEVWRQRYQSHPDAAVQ
# Assay: PDK1 kinase assay: PDK1 (amino acids 51-359) and AKT2 (amino acids 140-467 fused to PIFtide, amino acids […]) were expressed as N-terminally tagged GST fusion proteins in insect cells and purified to homogeneity. Enzyme activity was determined in a coupled PDK1/AKT/FAM-crosstide assay and phosphorylation of FAM-crosstide was determined by standard IMAP protocol (Molecular Devices). For inhibition studies, compounds were titrated 4-fold in DMSO and diluted 40-fold into assay buffer (10 mM Tris HCl pH7.2; 10 mM MgCl2; 0.01% Triton X-100; 1 mM DTT) containing PDK1, AKT2, and FAM-crosstide (final concentrations: 0.75 nM PDK1, 10 nM unphosphorylated AKT2, and 100 nM crosstide substrate). The kinase reaction was initiated by adding ATP to a final concentration of 40 μM of PDK1 and incubated at 25° C. for 30 min. To detect assay product, the kinase reaction was combined with Progressive Binding Solution (1:600 Progressive Binding Reagent, 50% Buffer A, 50% Buffer B, Molecular Devices) in a 1:3 ratio. The mixture was incubated for 2 hours at 25° C. and the plate was scanned on an Analyst AD with excitation at 485 nm and emission at 530 nm. The fluorescence polarization value P is defined by the equation below. The value mP is generated by multiplying the P value for each reaction well by a factor of 1000. The value ΔmP for each well is the mP value for that well minus the mP value for the average negative control. P=(Fpar−Fperp)/(Fpar+Fperp) Eq.:Where par is fluorescence intensity parallel to the excitation plane; and perp is fluorescence intensity perpendicular to the excitation plane. ΔmP values were plotted as a function of compound concentration and the data were analyzed with a 4-parameter fit using GraphPad Prism software.
# Type: biochemical
row,Structure (SMILES),IC50 [nM]
1,COCCNC(=O)c1cccnc1NCc1ccc(-c2ccc3ncnc(N)c3c2)s1,> 5000
2,C[C@H](NC(=O)c1cccnc1NCc1ccc(-c2cc3c(cn2)ncn3C)s1)c1ccc(F)cc1,> 5000
3,C[C@H](NC(=O)c1cc(C#N)cnc1N[C@H](C)c1ccc(-c2cnc3[nH]nc(N)c3c2)nc1)c1ccc(F)cc1,< 100
4,C[C@H](NC(=O)c1cccnc1NCc1ccc(-c2ccc3ncnc(NCCO)c3c2)s1)c1ccc(F)cc1,< 100
5,Nc1ncnc2ccc(-c3ccc(CNc4ncc(Br)cc4S(=O)(=O)NCc4ccc(F)c(F)c4)s3)cc12,> 5000
6,C[C@H](NC(=O)c1nc(C#N)cnc1NCc1ccc(-c2cnc(N)c(CO)n2)cc1)c1ccc(F)c(F)c1,< 100
7,CCc1cnc(NCc2ccc(-c3ccc4ncnc(N)c4c3)s2)c(C(=O)NCc2ccc(F)c(F)c2)c1,< 100
8,Cc1nc(N)cnc1-c1ccc(CNc2ncc(C#N)cc2C(=O)N[C@@H](C)c2ccc(F)cc2)cc1,> 5000
9,Cc1ccc(NC(=O)c2cccnc2NCc2ccc(-c3ccc4ncnc(N)c4c3)s2)cc1F,> 5000

# Continued, values first:
row,IC50 [nM],Structure (SMILES)
1,< 100,C[C@H](NC(=O)c1cc(C#N)cnc1NCc1ccc(-c2cnc3[nH]c(=O)[nH]c3c2)c(F)c1)c1ccc(F)cc1
2,< 100,C[C@H](NC(=O)c1cc(C#N)cnc1NCc1ccc(-c2cnc3[nH]c(=O)n(C)c3c2)cc1)c1ccc(F)cc1
3,< 100,C[C@H](NC(=O)c1nc(C(F)(F)F)cnc1NCc1ccc(-c2cnc3[nH]nc(N)c3c2)cc1)c1ccc(F)c(F)c1
4,< 100,N#Cc1cnc(NCc2ccc(-c3cnc4[nH]ncc4c3)cc2)c(C(=O)NCc2ccc(F)c(F)c2)c1
5,< 100,C[C@H](NC(=O)c1cc(C#N)cnc1NCC#Cc1ccc2nc(N)ncc2c1)c1ccc(F)cc1
6,< 100,C[C@H](NC(=O)c1nc(C(F)(F)F)cnc1N[C@H](C)c1ccc(-c2cnc3[nH]nc(N)c3c2)cc1)c1ccc(F)c(F)c1
7,< 100,C[C@H](NC(=O)c1cc(C#N)cnc1NCc1ccc(-c2cnc3[nH]nc(N)c3c2)cc1Cl)c1ccc(F)cc1
8,< 100,N#Cc1cc(F)ccc1NC(=O)c1cc(C(F)(F)F)cnc1NCc1ccc(-c2cnc3[nH]nc(N)c3c2)cc1
9,< 100,C[C@H](NC(=O)c1cc(C#N)cnc1NCc1ccc(-c2cnc3[nH]nc(N)c3c2)cc1F)c1ccc(F)cc1
10,< 100,Nc1ncc(-c2ccc(CNc3ncc(C(F)(F)F)cc3C(=O)Nc3ccc(F)cc3)cc2)nc1CO
11,< 100,Nc1ncnc2ccc(-c3ccc(CNc4ncccc4C(=O)NCc4cncc(F)c4)s3)cc12
12,< 100,C[C@H](NC(=O)c1nc(C#N)cnc1N[C@H](C)c1ccc(-c2cnc3[nH]nc(N)c3c2)nc1)c1ccc(F)c(F)c1
13,< 100,C[C@H](NC(=O)c1nc(C#N)cnc1NCC#Cc1ccc2nc(N)ncc2c1)c1ccc(F)c(F)c1

# — ChEMBL document CHEMBL5725671, “Heterocyclic compounds useful as PDK1 inhibitors” (2018)
